US20130338106A1, “COMPOUNDS INHIBITING LEUCINE-RICH REPEAT KINASE ENZYME ACTIVITY” (priority 2011, published 2013)
Where two headings read alike, the source gives them in different places.

Columns and labels:
Format in all cases: biochemical
AURA = target: T1, AURA (Homo sapiens, UniProt O14965); experiment: ProfilerPro Kinase Selectivity, AURA; conditions: tested at 10 uM, read-out: percent inhibition of the kinase activity
T1 construct: purchased Caliper LifeSciences
Method: (§1) Kinome selectivity profiling was performed using two example compounds according to the manufacturer's instructions using Caliper LifeSciences' ProfilerPro Kinase Selectivity Assay Kits. Compounds prepared in Examples 1 and 7 were tested at 10 uM and data were recorded using the Caliper LabChip® EZ Reader™. Each compounds' percent inhibition of the kinase activity measured in this manner is reported in the following lists.

C-TAK1 = target: T2, C-TAK1 (Homo sapiens, UniProt P27448); experiment: ProfilerPro Kinase Selectivity, C-TAK1; conditions: tested at 10 uM, read-out: percent inhibition of the kinase activity
T2 construct: purchased Caliper LifeSciences
Method: as §1

PKCI = target: T3, PKCI (Homo sapiens, UniProt P41743); experiment: ProfilerPro Kinase Selectivity, PKCI; conditions: tested at 10 uM, read-out: percent inhibition of the kinase activity
T3 construct: purchased Caliper LifeSciences
Method: as §1

PHKG2 = target: T4, PHKG2 (Homo sapiens, UniProt P15735); experiment: ProfilerPro Kinase Selectivity, PHKG2; conditions: tested at 10 uM, read-out: percent inhibition of the kinase activity
T4 construct: purchased Caliper LifeSciences
Method: as §1

MSK2 = target: T5, MSK2 (Homo sapiens, UniProt O75676); experiment: ProfilerPro Kinase Selectivity, MSK2; conditions: tested at 10 uM, read-out: percent inhibition of the kinase activity
T5 construct: purchased Caliper LifeSciences
Method: as §1

CHK2 = target: T6, CHK2 (Homo sapiens, UniProt O96017); experiment: ProfilerPro Kinase Selectivity, CHK2; conditions: tested at 10 uM, read-out: percent inhibition of the kinase activity
T6 construct: purchased Caliper LifeSciences
Method: as §1

LRRK2 (G2019S) = target: T7, LRRK2 (G2019S) (Homo sapiens, UniProt Q5S007, G2019S); experiment: ProfilerPro Kinase Selectivity, LRRK2 (G2019S); conditions: read-out: percent inhibition of the kinase activity
T7 construct: purchased Caliper LifeSciences
Method: as §1, with “Reader™.” for “Reader™. Each compounds' percent inhibition of the kinase activity measured in this manner is reported in the following lists.”

NUAK1 = target: T8, NUAK1 (Homo sapiens, UniProt O60285); experiment: ProfilerPro Kinase Selectivity, NUAK1; conditions: tested at 10 uM, read-out: percent inhibition of the kinase activity
T8 construct: purchased Caliper LifeSciences
Method: as §1

PRKCB1 = target: T9, PRKCB1 (Homo sapiens, UniProt P05771); experiment: ProfilerPro Kinase Selectivity, PRKCB1; conditions: tested at 10 uM, read-out: percent inhibition of the kinase activity
T9 construct: purchased Caliper LifeSciences
Method: as §1

JAK2 = target: T10, JAK2 (Homo sapiens, UniProt O60674); experiment: ProfilerPro Kinase Selectivity, JAK2; conditions: tested at 10 uM, read-out: percent inhibition of the kinase activity
T10 construct: purchased Caliper LifeSciences
Method: as §1

FLT-3 D835Y = target: T11, FLT-3 D835Y (Homo sapiens, UniProt P36888, D835Y); experiment: ProfilerPro Kinase Selectivity, FLT-3 D835Y; conditions: tested at 10 uM, read-out: percent inhibition of the kinase activity
T11 construct: purchased Caliper LifeSciences
Method: as §1

FYN = target: T12, FYN (Homo sapiens, UniProt P06241); experiment: ProfilerPro Kinase Selectivity, FYN; conditions: tested at 10 uM, read-out: percent inhibition of the kinase activity
T12 construct: purchased Caliper LifeSciences
Method: as §1

EPHA8 = target: T13, EPHA8 (Homo sapiens, UniProt P29322); experiment: ProfilerPro Kinase Selectivity, EPHA8; conditions: tested at 10 uM, read-out: percent inhibition of the kinase activity
T13 construct: purchased Caliper LifeSciences
Method: as §1

P38A/SAPK2A T106M = target: T14, P38A/SAPK2A T106M (Homo sapiens, UniProt Q16539, T106M); experiment: ProfilerPro Kinase Selectivity, P38A/SAPK2A T106M; conditions: tested at 10 uM, read-out: percent inhibition of the kinase activity
T14 construct: purchased Caliper LifeSciences
Method: as §1

FGFR1 = target: T15, FGFR1 (Homo sapiens, UniProt P11362); experiment: ProfilerPro Kinase Selectivity, FGFR1; conditions: tested at 10 uM, read-out: percent inhibition of the kinase activity
T15 construct: purchased Caliper LifeSciences
Method: as §1

PRKCE = target: T16, PRKCE (Homo sapiens, UniProt Q02156); experiment: ProfilerPro Kinase Selectivity, PRKCE; conditions: tested at 10 uM, read-out: percent inhibition of the kinase activity
T16 construct: purchased Caliper LifeSciences
Method: as §1

RSK2 = target: T17, RSK2 (Homo sapiens, UniProt P51812); experiment: ProfilerPro Kinase Selectivity, RSK2; conditions: tested at 10 uM, read-out: percent inhibition of the kinase activity
T17 construct: purchased Caliper LifeSciences
Method: as §1

ABL1 E255K = target: T18, ABL1 E255K (Homo sapiens, UniProt P00519, E255K); experiment: ProfilerPro Kinase Selectivity, ABL1 E255K; conditions: tested at 10 uM, read-out: percent inhibition of the kinase activity
T18 construct: purchased Caliper LifeSciences
Method: as §1

HIPK1 = target: T19, HIPK1 (Homo sapiens, UniProt Q86Z02); experiment: ProfilerPro Kinase Selectivity, HIPK1; conditions: tested at 10 uM, read-out: percent inhibition of the kinase activity
T19 construct: purchased Caliper LifeSciences
Method: as §1

BMX = target: T20, BMX (Homo sapiens, UniProt P51813); experiment: ProfilerPro Kinase Selectivity, BMX; conditions: tested at 10 uM, read-out: percent inhibition of the kinase activity
T20 construct: purchased Caliper LifeSciences
Method: as §1

AKT3 = target: T21, AKT3 (Homo sapiens, UniProt Q9Y243); experiment: ProfilerPro Kinase Selectivity, AKT3; conditions: tested at 10 uM, read-out: percent inhibition of the kinase activity
T21 construct: purchased Caliper LifeSciences
Method: as §1

LYNB = target: T22, LYNB (Homo sapiens, UniProt P07948); experiment: ProfilerPro Kinase Selectivity, LYNB; conditions: tested at 10 uM, read-out: percent inhibition of the kinase activity
T22 construct: purchased Caliper LifeSciences
Method: as §1

PAK3 = target: T23, PAK3 (Homo sapiens, UniProt O75914); experiment: ProfilerPro Kinase Selectivity, PAK3; conditions: tested at 10 uM, read-out: percent inhibition of the kinase activity
T23 construct: purchased Caliper LifeSciences
Method: as §1

FLT4 = target: T24, FLT4 (Homo sapiens, UniProt P35916); experiment: ProfilerPro Kinase Selectivity, FLT4; conditions: tested at 10 uM, read-out: percent inhibition of the kinase activity
T24 construct: purchased Caliper LifeSciences
Method: as §1

RET V804L = target: T25, RET V804L (Homo sapiens, UniProt P07949, V804L); experiment: ProfilerPro Kinase Selectivity, RET V804L; conditions: tested at 10 uM, read-out: percent inhibition of the kinase activity
T25 construct: purchased Caliper LifeSciences
Method: as §1

MST3 = target: T26, MST3 (Homo sapiens, UniProt Q9Y6E0); experiment: ProfilerPro Kinase Selectivity, MST3; conditions: tested at 10 uM, read-out: percent inhibition of the kinase activity
T26 construct: purchased Caliper LifeSciences
Method: as §1

FGFR3 K650E = target: T27, FGFR3 K650E (Homo sapiens, UniProt P22607, K650E); experiment: ProfilerPro Kinase Selectivity, FGFR3 K650E; conditions: tested at 10 uM, read-out: percent inhibition of the kinase activity
T27 construct: purchased Caliper LifeSciences
Method: as §1

NEK2 = target: T28, NEK2 (Homo sapiens, UniProt P51955); experiment: ProfilerPro Kinase Selectivity, NEK2; conditions: tested at 10 uM, read-out: percent inhibition of the kinase activity
T28 construct: purchased Caliper LifeSciences
Method: as §1

BRSK1 = target: T29, BRSK1 (Homo sapiens, UniProt Q8TDC3); experiment: ProfilerPro Kinase Selectivity, BRSK1; conditions: tested at 10 uM, read-out: percent inhibition of the kinase activity
T29 construct: purchased Caliper LifeSciences
Method: as §1

MELK = target: T30, MELK (Homo sapiens, UniProt Q14680); experiment: ProfilerPro Kinase Selectivity, MELK; conditions: tested at 10 uM, read-out: percent inhibition of the kinase activity
T30 construct: purchased Caliper LifeSciences
Method: as §1

DDR2 = target: T31, DDR2 (Homo sapiens, UniProt Q16832); experiment: ProfilerPro Kinase Selectivity, DDR2; conditions: tested at 10 uM, read-out: percent inhibition of the kinase activity
T31 construct: purchased Caliper LifeSciences
Method: as §1

PHKG1 = target: T32, PHKG1 (Homo sapiens, UniProt Q16816); experiment: ProfilerPro Kinase Selectivity, PHKG1; conditions: tested at 10 uM, read-out: percent inhibition of the kinase activity
T32 construct: purchased Caliper LifeSciences
Method: as §1

KDR = target: T33, KDR (Homo sapiens, UniProt P35968); experiment: ProfilerPro Kinase Selectivity, KDR; conditions: tested at 10 uM, read-out: percent inhibition of the kinase activity
T33 construct: purchased Caliper LifeSciences
Method: as §1

MAPKAPK3 = target: T34, MAPKAPK3 (Homo sapiens, UniProt Q16644); experiment: ProfilerPro Kinase Selectivity, MAPKAPK3; conditions: tested at 10 uM, read-out: percent inhibition of the kinase activity
T34 construct: purchased Caliper LifeSciences
Method: as §1

RET Y791F = target: T35, RET Y791F (Homo sapiens, UniProt P07949, Y791F); experiment: ProfilerPro Kinase Selectivity, RET Y791F; conditions: tested at 10 uM, read-out: percent inhibition of the kinase activity
T35 construct: purchased Caliper LifeSciences
Method: as §1

GCK = target: T36, GCK (Homo sapiens, UniProt Q12851); experiment: ProfilerPro Kinase Selectivity, GCK; conditions: tested at 10 uM, read-out: percent inhibition of the kinase activity
T36 construct: purchased Caliper LifeSciences
Method: as §1

T33 sequence (P35968 20-1356, species assumed): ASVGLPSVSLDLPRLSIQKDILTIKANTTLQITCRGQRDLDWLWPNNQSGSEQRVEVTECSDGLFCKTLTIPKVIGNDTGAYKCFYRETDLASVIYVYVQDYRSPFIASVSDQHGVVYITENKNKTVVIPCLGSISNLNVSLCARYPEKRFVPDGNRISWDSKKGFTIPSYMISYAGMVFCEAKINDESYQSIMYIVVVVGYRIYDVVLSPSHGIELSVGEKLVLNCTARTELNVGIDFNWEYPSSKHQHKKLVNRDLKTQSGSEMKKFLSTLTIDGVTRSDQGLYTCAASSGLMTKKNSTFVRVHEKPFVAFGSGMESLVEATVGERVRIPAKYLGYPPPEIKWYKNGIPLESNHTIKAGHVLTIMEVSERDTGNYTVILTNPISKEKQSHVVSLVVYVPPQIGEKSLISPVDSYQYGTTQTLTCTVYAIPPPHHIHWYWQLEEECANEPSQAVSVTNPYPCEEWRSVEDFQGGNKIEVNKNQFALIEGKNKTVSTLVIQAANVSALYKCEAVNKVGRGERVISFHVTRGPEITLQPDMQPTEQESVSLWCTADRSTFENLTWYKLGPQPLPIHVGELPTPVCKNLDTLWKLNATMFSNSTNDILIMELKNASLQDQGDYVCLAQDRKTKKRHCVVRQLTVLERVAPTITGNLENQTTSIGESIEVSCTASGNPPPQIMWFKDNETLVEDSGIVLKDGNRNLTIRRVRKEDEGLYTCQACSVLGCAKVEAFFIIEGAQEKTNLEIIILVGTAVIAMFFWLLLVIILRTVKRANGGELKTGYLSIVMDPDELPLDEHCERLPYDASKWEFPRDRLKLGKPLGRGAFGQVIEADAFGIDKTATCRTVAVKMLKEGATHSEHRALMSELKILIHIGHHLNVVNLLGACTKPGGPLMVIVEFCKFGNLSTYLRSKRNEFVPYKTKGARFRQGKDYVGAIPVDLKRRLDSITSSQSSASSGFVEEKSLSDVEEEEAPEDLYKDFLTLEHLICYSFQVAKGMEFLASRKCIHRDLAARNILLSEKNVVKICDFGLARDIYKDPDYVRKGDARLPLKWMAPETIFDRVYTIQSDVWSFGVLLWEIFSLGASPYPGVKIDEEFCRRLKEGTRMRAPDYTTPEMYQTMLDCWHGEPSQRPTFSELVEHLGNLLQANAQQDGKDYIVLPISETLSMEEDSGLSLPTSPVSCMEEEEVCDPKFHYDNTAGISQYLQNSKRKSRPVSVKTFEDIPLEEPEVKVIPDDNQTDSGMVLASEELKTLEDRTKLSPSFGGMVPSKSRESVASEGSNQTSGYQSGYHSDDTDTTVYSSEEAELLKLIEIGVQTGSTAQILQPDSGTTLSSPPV
T16 sequence (Q02156 whole entry, species assumed): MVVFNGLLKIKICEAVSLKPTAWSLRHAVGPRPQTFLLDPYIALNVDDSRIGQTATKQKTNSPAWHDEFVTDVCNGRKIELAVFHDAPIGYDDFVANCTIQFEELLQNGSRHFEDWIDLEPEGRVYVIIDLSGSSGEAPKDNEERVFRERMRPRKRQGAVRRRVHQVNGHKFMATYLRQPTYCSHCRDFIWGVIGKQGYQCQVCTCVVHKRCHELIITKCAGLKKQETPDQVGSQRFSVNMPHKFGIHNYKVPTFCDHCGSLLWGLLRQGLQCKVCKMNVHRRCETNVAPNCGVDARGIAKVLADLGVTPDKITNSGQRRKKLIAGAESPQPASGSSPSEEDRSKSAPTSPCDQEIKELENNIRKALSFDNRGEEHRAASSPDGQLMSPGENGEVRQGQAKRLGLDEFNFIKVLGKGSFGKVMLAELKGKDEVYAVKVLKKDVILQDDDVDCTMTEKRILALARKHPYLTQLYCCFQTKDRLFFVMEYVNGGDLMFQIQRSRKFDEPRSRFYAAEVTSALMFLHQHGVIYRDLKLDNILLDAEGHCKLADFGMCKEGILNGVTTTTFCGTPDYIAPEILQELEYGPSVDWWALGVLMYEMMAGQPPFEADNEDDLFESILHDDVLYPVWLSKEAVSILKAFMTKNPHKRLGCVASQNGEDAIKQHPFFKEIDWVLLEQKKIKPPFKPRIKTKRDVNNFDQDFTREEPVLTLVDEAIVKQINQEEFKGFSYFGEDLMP
T27 sequence (P22607 23-806 K650E): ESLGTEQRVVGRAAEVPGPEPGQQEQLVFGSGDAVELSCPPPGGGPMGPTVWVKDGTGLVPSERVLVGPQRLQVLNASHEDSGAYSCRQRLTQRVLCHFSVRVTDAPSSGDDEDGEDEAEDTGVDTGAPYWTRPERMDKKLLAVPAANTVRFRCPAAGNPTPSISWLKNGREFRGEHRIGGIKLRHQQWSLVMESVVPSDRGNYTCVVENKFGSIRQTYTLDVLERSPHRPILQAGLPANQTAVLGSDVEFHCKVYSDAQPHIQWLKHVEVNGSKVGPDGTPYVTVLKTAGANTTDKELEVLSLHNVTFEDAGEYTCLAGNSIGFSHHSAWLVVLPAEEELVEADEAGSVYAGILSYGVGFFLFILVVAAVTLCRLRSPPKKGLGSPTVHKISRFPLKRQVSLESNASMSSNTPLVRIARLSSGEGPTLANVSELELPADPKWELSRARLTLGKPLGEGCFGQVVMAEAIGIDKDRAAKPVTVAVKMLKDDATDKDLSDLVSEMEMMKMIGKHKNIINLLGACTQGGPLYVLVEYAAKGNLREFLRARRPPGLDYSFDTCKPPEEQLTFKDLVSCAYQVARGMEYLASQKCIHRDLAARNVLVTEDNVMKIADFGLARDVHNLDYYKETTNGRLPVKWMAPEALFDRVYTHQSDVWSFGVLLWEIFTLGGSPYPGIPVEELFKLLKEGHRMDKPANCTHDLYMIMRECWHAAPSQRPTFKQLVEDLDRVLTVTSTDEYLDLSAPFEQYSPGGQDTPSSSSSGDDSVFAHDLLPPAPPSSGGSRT
T17 sequence (P51812 whole entry, species assumed): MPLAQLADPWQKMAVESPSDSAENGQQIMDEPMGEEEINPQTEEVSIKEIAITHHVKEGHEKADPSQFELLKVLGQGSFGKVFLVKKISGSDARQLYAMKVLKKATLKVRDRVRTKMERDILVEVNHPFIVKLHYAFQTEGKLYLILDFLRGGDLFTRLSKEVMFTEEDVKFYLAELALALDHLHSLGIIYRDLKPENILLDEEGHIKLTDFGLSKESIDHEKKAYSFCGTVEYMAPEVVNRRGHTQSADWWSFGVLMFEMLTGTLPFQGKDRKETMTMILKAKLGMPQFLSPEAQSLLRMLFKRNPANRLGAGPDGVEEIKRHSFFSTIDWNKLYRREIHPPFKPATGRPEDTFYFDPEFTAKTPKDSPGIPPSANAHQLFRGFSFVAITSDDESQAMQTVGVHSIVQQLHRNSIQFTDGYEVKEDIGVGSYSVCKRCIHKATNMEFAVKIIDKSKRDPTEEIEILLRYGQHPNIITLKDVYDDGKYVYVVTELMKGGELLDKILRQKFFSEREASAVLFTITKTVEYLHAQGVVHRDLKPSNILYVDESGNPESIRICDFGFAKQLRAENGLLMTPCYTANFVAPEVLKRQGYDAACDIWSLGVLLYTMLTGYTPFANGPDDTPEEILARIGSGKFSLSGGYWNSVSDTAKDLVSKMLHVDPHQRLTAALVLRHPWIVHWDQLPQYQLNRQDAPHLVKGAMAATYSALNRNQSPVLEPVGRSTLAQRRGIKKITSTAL
T35 sequence (P07949 29-1114 Y791F): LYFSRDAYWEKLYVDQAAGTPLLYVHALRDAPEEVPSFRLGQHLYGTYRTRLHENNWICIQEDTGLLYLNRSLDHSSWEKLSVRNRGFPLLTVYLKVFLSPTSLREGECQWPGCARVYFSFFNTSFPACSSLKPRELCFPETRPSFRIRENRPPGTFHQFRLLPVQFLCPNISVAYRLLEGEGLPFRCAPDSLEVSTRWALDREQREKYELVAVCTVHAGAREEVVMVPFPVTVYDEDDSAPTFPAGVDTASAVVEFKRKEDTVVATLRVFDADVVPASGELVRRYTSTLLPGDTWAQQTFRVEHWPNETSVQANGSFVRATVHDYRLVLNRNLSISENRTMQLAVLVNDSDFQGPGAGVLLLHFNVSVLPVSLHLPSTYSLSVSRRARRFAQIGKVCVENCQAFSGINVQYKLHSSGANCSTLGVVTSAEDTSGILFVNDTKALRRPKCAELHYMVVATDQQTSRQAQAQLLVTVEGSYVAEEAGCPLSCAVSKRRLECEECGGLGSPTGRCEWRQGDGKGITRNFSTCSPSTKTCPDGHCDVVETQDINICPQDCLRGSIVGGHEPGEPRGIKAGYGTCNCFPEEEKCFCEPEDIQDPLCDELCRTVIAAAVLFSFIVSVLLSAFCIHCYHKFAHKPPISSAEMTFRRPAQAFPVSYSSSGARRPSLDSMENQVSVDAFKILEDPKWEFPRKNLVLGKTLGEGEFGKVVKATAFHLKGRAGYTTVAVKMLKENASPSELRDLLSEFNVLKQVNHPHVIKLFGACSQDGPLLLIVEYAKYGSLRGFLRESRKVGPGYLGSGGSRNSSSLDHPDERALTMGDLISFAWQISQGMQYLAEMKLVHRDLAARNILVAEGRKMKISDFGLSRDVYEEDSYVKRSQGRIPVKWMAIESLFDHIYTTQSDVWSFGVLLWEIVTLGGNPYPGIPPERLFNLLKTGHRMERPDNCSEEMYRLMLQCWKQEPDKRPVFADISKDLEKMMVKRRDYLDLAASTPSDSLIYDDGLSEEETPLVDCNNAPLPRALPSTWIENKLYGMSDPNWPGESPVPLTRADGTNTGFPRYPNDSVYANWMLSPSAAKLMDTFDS
T4 sequence (P15735 whole entry, species assumed): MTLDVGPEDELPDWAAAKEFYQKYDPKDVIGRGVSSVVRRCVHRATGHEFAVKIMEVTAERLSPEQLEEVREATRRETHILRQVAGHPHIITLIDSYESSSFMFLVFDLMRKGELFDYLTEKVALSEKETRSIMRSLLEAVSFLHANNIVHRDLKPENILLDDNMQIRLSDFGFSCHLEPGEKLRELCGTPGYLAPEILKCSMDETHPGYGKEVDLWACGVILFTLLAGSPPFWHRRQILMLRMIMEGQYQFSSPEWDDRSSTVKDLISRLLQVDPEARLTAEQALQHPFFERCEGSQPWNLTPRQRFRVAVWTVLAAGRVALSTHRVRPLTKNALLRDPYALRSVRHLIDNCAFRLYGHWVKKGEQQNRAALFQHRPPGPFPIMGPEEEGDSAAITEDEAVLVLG

| Structure (SMILES) | inhibition at 10 µM (AURA) [%] | inhibition at 10 µM (C-TAK1) [%] | inhibition at 10 µM (PKCI) [%] | inhibition at 10 µM (PHKG2) [%] | inhibition at 10 µM (MSK2) [%] | inhibition at 10 µM (CHK2) [%] | inhibition at 10 µM (NUAK1) [%] | inhibition at 10 µM (PRKCB1) [%] | inhibition at 10 µM (JAK2) [%] | inhibition at 10 µM (FLT-3 D835Y) [%] | inhibition at 10 µM (FYN) [%] | inhibition at 10 µM (EPHA8) [%] | inhibition at 10 µM (P38A/SAPK2A T106M) [%] | inhibition at 10 µM (FGFR1) [%] | inhibition at 10 µM (PRKCE) [%] | inhibition at 10 µM (RSK2) [%] | inhibition at 10 µM (ABL1 E255K) [%] | inhibition at 10 µM (HIPK1) [%] | inhibition at 10 µM (BMX) [%] | inhibition at 10 µM (AKT3) [%] | other results |
| --- | --- | --- | --- | --- | --- | --- | --- | --- | --- | --- | --- | --- | --- | --- | --- | --- | --- | --- | --- | --- | --- |
| CSc1sc(-c2cc[nH]n2)c2c1C(=O)CCC2 [Example 1, 3-(Methylsulfanyl)-1-(1H-pyrazol-3-yl)-6,7-dihydro-2-benzothiophen-4(5H)-one] | 44 | 5.3 | -14 | -5.5 | 4.2 | 48.7 | 44.2 | -5.1 | 19.4 | 39.3 | 1.2 | -0.2 | 1.2 | 1.9 | -2.7 | 5.5 | 2.8 | 15.9 | -10.9 | -2.2 | inhibition at 10 µM (LRRK2 (G2019S)): 88.3%; inhibition at 10 µM (LYNB): 8.2%; inhibition at 10 µM (PAK3): -13.1%; inhibition at 10 µM (FLT4): 22.5%; inhibition at 10 µM (RET V804L): 41.5%; inhibition at 10 µM (MST3): -2.2%; inhibition at 10 µM (FGFR3 K650E): 3.7%; inhibition at 10 µM (NEK2): -0.8%; inhibition at 10 µM (BRSK1): -0.2%; inhibition at 10 µM (MELK): 11%; inhibition at 10 µM (DDR2): 0.8%; inhibition at 10 µM (PHKG1): 6.3%; inhibition at 10 µM (KDR): 16.4%; inhibition at 10 µM (MAPKAPK3): 0.1%; inhibition at 10 µM (RET Y791F): 37.6%; inhibition at 10 µM (GCK): 6.3% |
| CC1(C)CC(=O)c2c(SC3CCCC3)sc(-c3cc[nH]n3)c2C1 [Example 7, 3-(Cyclopentylsulfanyl)-6,6-dimethyl-1-(1H-pyrazol-3-yl)-6,7-dihydro-2-benzothiophen-4(5H)-one] | 11 | 4.7 | -8.9 | -2 | 10.4 | 3.7 | -4.2 | -3.9 | 5.3 | 2.7 | 2.5 | -3.8 | 3.7 | 7.4 | 3.9 | 3.5 | 7.5 | -1 | -30.7 | -2.7 | inhibition at 10 µM (LRRK2 (G2019S); LRRK2 (G2019S), tested at 10 uM): 78.3%; inhibition at 10 µM (LYNB): -4.9%; inhibition at 10 µM (PAK3): -170%; inhibition at 10 µM (FLT4): 2%; inhibition at 10 µM (RET V804L): 15.7%; inhibition at 10 µM (MST3): -10.9%; inhibition at 10 µM (FGFR3 K650E): -4.2%; inhibition at 10 µM (NEK2): 0.9%; inhibition at 10 µM (BRSK1): 3.8%; inhibition at 10 µM (MELK): 7.3%; inhibition at 10 µM (DDR2): -3.9%; inhibition at 10 µM (PHKG1): 4.6%; inhibition at 10 µM (KDR): -0.8%; inhibition at 10 µM (MAPKAPK3): -1%; inhibition at 10 µM (RET Y791F): 11.1%; inhibition at 10 µM (GCK): 11.8% |
